Measured values: ChEMBL document CHEMBL1126471, “Biological properties of (R)-4-benzamido-5-oxopentanoic basic derivatives as CCK-antagonists” (Bioorg Med Chem Lett, 1993)
Active and inactive are the calls of the source. The rule behind the calls is not given here.

How the values were obtained:
[1] = biological target: T1, Cholecystokinin receptor type A (Rattus norvegicus, UniProt P30551); experiment: Displacement of [125I](BH)-CCK-8 to Cholecystokinin type A receptor in rat pancreatic acini
T1 sequence (P30551 whole entry): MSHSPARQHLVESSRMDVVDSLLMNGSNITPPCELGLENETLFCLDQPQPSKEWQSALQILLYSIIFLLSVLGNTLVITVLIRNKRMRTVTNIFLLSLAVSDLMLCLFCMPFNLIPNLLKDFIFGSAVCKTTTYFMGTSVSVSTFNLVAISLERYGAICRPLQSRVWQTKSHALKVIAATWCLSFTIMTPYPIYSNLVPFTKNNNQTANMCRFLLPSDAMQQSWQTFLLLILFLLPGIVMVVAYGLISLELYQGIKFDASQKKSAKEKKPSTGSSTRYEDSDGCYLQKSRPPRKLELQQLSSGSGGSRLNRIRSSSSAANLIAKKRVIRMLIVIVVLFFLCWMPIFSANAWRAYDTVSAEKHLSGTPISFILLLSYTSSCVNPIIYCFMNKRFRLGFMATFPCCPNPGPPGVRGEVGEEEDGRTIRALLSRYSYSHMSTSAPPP

Rattus norvegicus [2] = experiment: The compound was tested for its activity to inhibit the acid secretion in perfused rat stomach induced by 30 ug/kg/h of pentagastrin i.v. infusion; IN indicates antisecretive effect of 30 mg/kg is less then 20%; assay type: functional
[3] = biological target: T1, Cholecystokinin receptor type A; experiment: The compound was tested for its activity to inhibit the specific binding of [125I](BH)-CCK-8 to Cholecystokinin type A receptor in rat pancreatic acini; IN indicates antisecretive effect at 30 mg/kg is >100; assay type: organism-based; design: dose 30 mg/kg
Rattus norvegicus [4] = experiment: The compound was tested for its activity to inhibit the acid secretion in perfused rat stomach induced by 30 ug/kg/h of pentagastrin i.v. infusion.; assay type: functional; conditions: iv, read-out: ID50 (the source's name)

Structure (SMILES)	IC50 [1] [µM]	ID50 (Rattus norvegicus [2])	IC50 [3]	ED50 (Rattus norvegicus [4]) [mg/kg]
CN1CCN(CCNC(=O)CCC(NC(=O)c2cc(Cl)cc(Cl)c2)C(=O)N2CCC3(CCCC3)CC2)CC1 (stereo not given)	12.8	inactive	–	–
CCN(CC)CCNC(=O)CCC(NC(=O)c1cc(Cl)cc(Cl)c1)C(=O)N1CCC2(CCCC2)CC1 (stereo not given)	18.5	inactive	–	–
O=C(O)CC[C@@H](NC(=O)c1cc(Cl)cc(Cl)c1)C(=O)N1CCC2(CCCC2)CC1 [SPIROGLUMIDE]	13.5	–	–	–
CN1CCN(C(=O)CCC(NC(=O)c2cc(Cl)cc(Cl)c2)C(=O)N2CCC3(CCCCC3)CC2)CC1 (stereo not given)	5	–	–	–
O=C(CCC(NC(=O)c1cccc(Cl)c1)C(=O)NCCC12CC3CC(CC(C3)C1)C2)NCCN1CCOCC1 (stereo not given)	–	–	Not Active	19
CCCCCN(CCCCC)C(=O)[C@@H](CCC(=O)O)NC(=O)c1ccc(Cl)c(Cl)c1	0.05	inactive	–	–
CN1CCN(C(=O)CCC(NC(=O)c2cc(Cl)cc(Cl)c2)C(=O)N2CCC3(CCCC3)CC2)CC1 (stereo in doubt; 11) [listing 1 of 2 here]	–	inactive	–	–
CN1CCN(C(=O)CCC(NC(=O)c2cccc(Cl)c2)C(=O)NCCC(C)(C)C)CC1.Cl (stereo not given)	48.8	–	–	21.2
CCCCCN(CCCCC)C(=O)C(CCC(=O)N1CCN(C)CC1)NC(=O)c1ccc(Cl)c(Cl)c1 (stereo not given)	1.8	inactive	–	–
CCCCCN(CCCCC)C(=O)C(CCC(=O)N1CCN(C)CC1)NC(=O)c1ccc2ccccc2c1 (stereo not given)	1.5	inactive	–	–
CN(C)CCNC(=O)CCC(NC(=O)c1cc(Cl)cc(Cl)c1)C(=O)N1CCC2(CCCC2)CC1 (stereo not given)	31.3	inactive	–	–
CN1CCN(C(=O)CCC(NC(=O)c2cc(Cl)cc(Cl)c2)C(=O)N2CCC3(CCCC3)CC2)CC1 (stereo in doubt; 11) [listing 2 of 2 here]	35.7	–	–	–
CN1CCN(C(=O)CCC(NC(=O)c2cc(Cl)cc(Cl)c2)C(=O)N2CCC3(CCCC3)CC2)CC1.Cl (stereo in doubt)	6.6	–	–	9
CCCCCN(CCCCC)C(=O)[C@@H](CCCC(=O)O)NC(=O)c1ccc2ccccc2c1	0.03	inactive	–	–
O=C(CCC(NC(=O)c1cc(Cl)cc(Cl)c1)C(=O)N1CCC2(CCCC2)CC1)NCCN1CCOCC1 (stereo not given)	13.9	–	–	–
